Publication PMC9817970 (Cancers, 2022)

Experiments:
Experiment in all cases: Kinase panel profiling
Assay type in all cases: biochemical
Conditions in all cases: 10 μM ATP
CDK5/p35 = target: T1, CDK5/p35 (Homo sapiens, UniProt Q00535)
T1 construct: purchased Reaction Biology Corp
Protocol: (§1) Kinase panel profiling was conducted by Reaction Biology Corp. (San Diego, CA, USA). A single dose (1.0 μM) of 6r was tested against 371 recombinant human kinases in the presence of 10 μM ATP.

SYK = target: T2, SYK (Homo sapiens, UniProt P43405)
T2 construct: purchased Reaction Biology Corp
Protocol: as §1

DYRK1/DYRK1A = target: T3, DYRK1/DYRK1A (Homo sapiens, UniProt Q13627)
T3 construct: purchased Reaction Biology Corp
Protocol: as §1

AURORA C = target: T4, AURORA C (Homo sapiens, UniProt Q9UQB9)
T4 construct: purchased Reaction Biology Corp
Protocol: as §1

RAF1 = target: T5, RAF1 (Homo sapiens, UniProt P04049)
T5 construct: purchased Reaction Biology Corp
Protocol: as §1

CDK2/Cyclin A1 = target: T6, CDK2/Cyclin A1 (Homo sapiens, UniProt P24941)
T6 construct: purchased Reaction Biology Corp
Protocol: as §1

CDK14/cyclin Y (PFTK1) = target: T7, CDK14/cyclin Y (PFTK1) (Homo sapiens, UniProt O94921)
T7 construct: purchased Reaction Biology Corp
Protocol: as §1

MSK1/RPS6KA5 = target: T8, MSK1/RPS6KA5 (Homo sapiens, UniProt O75582)
T8 construct: purchased Reaction Biology Corp
Protocol: as §1

ARK5/NUAK1 = target: T9, ARK5/NUAK1 (Homo sapiens, UniProt O60285)
T9 construct: purchased Reaction Biology Corp
Protocol: as §1

ERBB2/HER2 = target: T10, ERBB2/HER2 (Homo sapiens, UniProt P04626)
T10 construct: purchased Reaction Biology Corp
Protocol: as §1

PAK3 = target: T11, PAK3 (Homo sapiens, UniProt O75914)
T11 construct: purchased Reaction Biology Corp
Protocol: as §1

COT1/MAP3K8 = target: T12, COT1/MAP3K8 (Homo sapiens, UniProt P41279)
T12 construct: purchased Reaction Biology Corp
Protocol: as §1

TSSK3/STK22C = target: T13, TSSK3/STK22C (Homo sapiens, UniProt Q96PN8)
T13 construct: purchased Reaction Biology Corp
Protocol: as §1

GRK7 = target: T14, GRK7 (Homo sapiens, UniProt Q8WTQ7)
T14 construct: purchased Reaction Biology Corp
Protocol: as §1

PKCd = target: T15, PKCd (Homo sapiens, UniProt Q05655)
T15 construct: purchased Reaction Biology Corp
Protocol: as §1

CLK2 = target: T16, CLK2 (Homo sapiens, UniProt P49760)
T16 construct: purchased Reaction Biology Corp
Protocol: as §1

MUSK = target: T17, MUSK (Homo sapiens, UniProt O15146)
T17 construct: purchased Reaction Biology Corp
Protocol: as §1

OSR1/OXSR1 = target: T18, OSR1/OXSR1 (Homo sapiens, UniProt O95747)
T18 construct: purchased Reaction Biology Corp
Protocol: as §1

SGK3/SGKL = target: T19, SGK3/SGKL (Homo sapiens, UniProt Q96BR1)
T19 construct: purchased Reaction Biology Corp
Protocol: as §1

PKCeta = target: T20, PKCeta (Homo sapiens, UniProt P24723)
T20 construct: purchased Reaction Biology Corp
Protocol: as §1

CDK1/cyclin A = target: T21, CDK1/cyclin A (Homo sapiens, UniProt P06493)
T21 construct: purchased Reaction Biology Corp
Protocol: as §1

PYK2 = target: T22, PYK2 (Homo sapiens, UniProt Q14289)
T22 construct: purchased Reaction Biology Corp
Protocol: as §1

FMS = target: T23, FMS (Homo sapiens, UniProt P07333)
T23 construct: purchased Reaction Biology Corp
Protocol: as §1

MSK2/RPS6KA4 = target: T24, MSK2/RPS6KA4 (Homo sapiens, UniProt O75676)
T24 construct: purchased Reaction Biology Corp
Protocol: as §1

EPHA7 = target: T25, EPHA7 (Homo sapiens, UniProt Q15375)
T25 construct: purchased Reaction Biology Corp
Protocol: as §1

ROCK2 = target: T26, ROCK2 (Homo sapiens, UniProt O75116)
T26 construct: purchased Reaction Biology Corp
Protocol: as §1

RSK4 = target: T27, RSK4 (Homo sapiens, UniProt Q9UK32)
T27 construct: purchased Reaction Biology Corp
Protocol: as §1

ERK1 = target: T28, ERK1 (Homo sapiens, UniProt P27361)
T28 construct: purchased Reaction Biology Corp
Protocol: as §1

MLCK/MYLK = target: T29, MLCK/MYLK (Homo sapiens, UniProt Q15746)
T29 construct: purchased Reaction Biology Corp
Protocol: as §1

STK16 = target: T30, STK16 (Homo sapiens, UniProt O75716)
T30 construct: purchased Reaction Biology Corp
Protocol: as §1

PIM2 = target: T31, PIM2 (Homo sapiens, UniProt Q9P1W9)
T31 construct: purchased Reaction Biology Corp
Protocol: as §1

MST1/STK4 = target: T32, MST1/STK4 (Homo sapiens, UniProt Q13043)
T32 construct: purchased Reaction Biology Corp
Protocol: as §1

JAK1 = target: T33, JAK1 (Homo sapiens, UniProt P23458)
T33 construct: purchased Reaction Biology Corp
Protocol: as §1

CDC7/DBF4 = target: T34, CDC7/DBF4 (Homo sapiens, UniProt O00311)
T34 construct: purchased Reaction Biology Corp
Protocol: as §1

ERBB4/HER4 = target: T35, ERBB4/HER4 (Homo sapiens, UniProt Q15303)
T35 construct: purchased Reaction Biology Corp
Protocol: as §1

TGFBR2 = target: T36, TGFBR2 (Homo sapiens, UniProt P37173)
T36 construct: purchased Reaction Biology Corp
Protocol: as §1

CK2a = target: T37, CK2a (Homo sapiens, UniProt P68400)
T37 construct: purchased Reaction Biology Corp
Protocol: as §1

MEK5 = target: T38, MEK5 (Homo sapiens, UniProt Q13163)
T38 construct: purchased Reaction Biology Corp
Protocol: as §1

PKCg = target: T39, PKCg (Homo sapiens, UniProt P05129)
T39 construct: purchased Reaction Biology Corp
Protocol: as §1

PKCzeta = target: T40, PKCzeta (Homo sapiens, UniProt Q05513)
T40 construct: purchased Reaction Biology Corp
Protocol: as §1

MST3/STK24 = target: T41, MST3/STK24 (Homo sapiens, UniProt Q9Y6E0)
T41 construct: purchased Reaction Biology Corp
Protocol: as §1

LATS1 = target: T42, LATS1 (Homo sapiens, UniProt O95835)
T42 construct: purchased Reaction Biology Corp
Protocol: as §1

T25 sequence (Q15375 28-998): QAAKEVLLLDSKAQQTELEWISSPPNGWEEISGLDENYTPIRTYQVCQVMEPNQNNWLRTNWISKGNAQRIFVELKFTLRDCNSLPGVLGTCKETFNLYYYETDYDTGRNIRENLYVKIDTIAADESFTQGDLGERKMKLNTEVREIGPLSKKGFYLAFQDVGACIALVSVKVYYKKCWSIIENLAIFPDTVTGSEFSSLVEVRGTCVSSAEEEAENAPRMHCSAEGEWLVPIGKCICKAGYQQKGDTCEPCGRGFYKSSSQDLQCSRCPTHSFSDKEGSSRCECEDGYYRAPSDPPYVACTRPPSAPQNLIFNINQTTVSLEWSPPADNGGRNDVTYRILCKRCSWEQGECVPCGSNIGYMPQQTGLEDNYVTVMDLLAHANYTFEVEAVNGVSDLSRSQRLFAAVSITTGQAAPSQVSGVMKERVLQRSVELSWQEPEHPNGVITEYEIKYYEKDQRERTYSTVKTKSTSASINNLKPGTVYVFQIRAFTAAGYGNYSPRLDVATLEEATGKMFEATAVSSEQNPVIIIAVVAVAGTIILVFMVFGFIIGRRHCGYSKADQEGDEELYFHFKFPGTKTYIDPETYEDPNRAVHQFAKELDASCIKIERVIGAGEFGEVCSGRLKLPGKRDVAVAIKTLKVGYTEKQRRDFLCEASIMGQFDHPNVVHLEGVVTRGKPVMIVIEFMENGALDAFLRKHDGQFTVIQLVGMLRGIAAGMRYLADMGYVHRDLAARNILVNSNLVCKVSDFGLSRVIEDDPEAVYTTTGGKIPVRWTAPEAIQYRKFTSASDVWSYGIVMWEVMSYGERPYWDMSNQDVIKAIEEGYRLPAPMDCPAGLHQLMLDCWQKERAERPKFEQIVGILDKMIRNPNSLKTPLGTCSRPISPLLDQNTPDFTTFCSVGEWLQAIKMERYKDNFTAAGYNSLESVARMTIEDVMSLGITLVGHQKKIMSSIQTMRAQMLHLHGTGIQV
T41 sequence (Q9Y6E0 whole entry): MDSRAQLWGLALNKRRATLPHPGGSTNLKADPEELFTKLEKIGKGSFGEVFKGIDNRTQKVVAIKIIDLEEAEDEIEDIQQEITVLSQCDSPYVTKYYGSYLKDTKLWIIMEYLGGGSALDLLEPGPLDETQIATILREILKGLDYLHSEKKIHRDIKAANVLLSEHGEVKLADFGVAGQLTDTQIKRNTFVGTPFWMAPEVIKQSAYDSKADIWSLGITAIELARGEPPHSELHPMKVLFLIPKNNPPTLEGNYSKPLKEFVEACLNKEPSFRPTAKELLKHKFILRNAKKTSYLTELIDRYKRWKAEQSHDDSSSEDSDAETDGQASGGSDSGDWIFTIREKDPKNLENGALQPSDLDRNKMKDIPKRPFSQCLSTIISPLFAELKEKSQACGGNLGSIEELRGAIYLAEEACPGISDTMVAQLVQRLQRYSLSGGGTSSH
T26 sequence (O75116 whole entry): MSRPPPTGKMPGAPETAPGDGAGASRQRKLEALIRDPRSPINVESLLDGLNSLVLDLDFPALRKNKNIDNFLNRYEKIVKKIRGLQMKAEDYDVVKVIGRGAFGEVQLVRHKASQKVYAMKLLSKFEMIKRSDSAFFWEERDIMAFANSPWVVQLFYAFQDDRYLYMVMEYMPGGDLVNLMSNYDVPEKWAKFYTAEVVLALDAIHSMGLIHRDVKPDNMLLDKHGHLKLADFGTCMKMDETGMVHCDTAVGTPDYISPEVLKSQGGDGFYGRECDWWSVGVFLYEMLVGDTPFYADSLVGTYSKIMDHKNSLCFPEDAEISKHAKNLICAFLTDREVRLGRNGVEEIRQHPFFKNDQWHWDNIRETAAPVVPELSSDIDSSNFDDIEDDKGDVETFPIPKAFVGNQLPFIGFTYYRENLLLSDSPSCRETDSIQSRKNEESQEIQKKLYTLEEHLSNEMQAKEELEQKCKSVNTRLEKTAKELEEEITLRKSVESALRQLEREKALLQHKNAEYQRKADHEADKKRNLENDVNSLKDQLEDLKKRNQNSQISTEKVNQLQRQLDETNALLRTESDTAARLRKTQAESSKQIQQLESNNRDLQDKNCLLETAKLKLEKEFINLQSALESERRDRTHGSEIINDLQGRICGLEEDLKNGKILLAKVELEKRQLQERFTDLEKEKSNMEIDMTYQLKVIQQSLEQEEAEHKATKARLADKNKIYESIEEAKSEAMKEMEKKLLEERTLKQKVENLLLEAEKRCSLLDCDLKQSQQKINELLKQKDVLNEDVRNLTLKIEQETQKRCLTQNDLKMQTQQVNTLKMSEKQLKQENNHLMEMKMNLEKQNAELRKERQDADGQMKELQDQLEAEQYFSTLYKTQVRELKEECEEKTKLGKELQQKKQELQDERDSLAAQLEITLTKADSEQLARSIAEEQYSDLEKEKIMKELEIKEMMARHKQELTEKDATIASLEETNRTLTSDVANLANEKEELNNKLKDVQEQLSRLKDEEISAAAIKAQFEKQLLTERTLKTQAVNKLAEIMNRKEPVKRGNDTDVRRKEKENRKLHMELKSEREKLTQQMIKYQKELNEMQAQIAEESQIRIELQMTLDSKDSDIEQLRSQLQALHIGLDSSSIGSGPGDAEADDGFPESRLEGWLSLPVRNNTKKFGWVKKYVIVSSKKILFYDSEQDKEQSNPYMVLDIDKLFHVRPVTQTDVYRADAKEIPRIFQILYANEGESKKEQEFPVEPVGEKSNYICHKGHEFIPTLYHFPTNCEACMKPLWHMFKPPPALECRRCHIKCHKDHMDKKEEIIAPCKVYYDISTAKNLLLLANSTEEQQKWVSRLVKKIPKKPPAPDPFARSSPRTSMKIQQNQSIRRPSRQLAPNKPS
T10 sequence (P04626 23-1255): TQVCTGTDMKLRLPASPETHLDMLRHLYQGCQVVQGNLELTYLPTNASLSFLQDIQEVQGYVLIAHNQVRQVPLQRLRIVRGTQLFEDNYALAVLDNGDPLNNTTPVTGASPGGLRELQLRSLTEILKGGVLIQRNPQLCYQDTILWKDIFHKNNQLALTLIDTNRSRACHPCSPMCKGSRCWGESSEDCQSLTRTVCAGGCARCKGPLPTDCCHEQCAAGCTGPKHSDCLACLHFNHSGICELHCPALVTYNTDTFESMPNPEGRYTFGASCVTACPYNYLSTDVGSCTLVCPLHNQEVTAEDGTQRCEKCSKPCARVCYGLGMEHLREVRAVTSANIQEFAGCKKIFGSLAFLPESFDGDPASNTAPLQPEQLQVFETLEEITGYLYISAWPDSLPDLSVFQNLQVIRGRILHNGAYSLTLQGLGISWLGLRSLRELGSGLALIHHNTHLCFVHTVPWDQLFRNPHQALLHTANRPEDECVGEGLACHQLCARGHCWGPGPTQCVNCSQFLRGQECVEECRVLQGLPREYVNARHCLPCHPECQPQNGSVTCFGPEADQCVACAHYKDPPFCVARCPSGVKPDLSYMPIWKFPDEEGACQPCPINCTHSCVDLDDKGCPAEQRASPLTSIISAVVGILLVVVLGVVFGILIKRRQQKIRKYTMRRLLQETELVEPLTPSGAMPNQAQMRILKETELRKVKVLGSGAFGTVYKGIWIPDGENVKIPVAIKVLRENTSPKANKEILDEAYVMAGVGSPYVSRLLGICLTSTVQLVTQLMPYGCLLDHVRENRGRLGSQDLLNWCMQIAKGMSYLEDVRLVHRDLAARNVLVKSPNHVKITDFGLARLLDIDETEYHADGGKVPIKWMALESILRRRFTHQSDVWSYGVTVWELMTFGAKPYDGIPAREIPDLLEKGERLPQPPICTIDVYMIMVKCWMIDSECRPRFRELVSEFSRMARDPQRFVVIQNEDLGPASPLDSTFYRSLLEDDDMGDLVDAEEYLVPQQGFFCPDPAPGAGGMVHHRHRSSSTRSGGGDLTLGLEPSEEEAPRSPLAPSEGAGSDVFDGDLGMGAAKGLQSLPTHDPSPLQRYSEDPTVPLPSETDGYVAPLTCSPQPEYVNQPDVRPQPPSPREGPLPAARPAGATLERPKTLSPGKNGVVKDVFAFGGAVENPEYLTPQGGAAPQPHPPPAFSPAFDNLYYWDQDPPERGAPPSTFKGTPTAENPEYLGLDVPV
T7 sequence (O94921 whole entry): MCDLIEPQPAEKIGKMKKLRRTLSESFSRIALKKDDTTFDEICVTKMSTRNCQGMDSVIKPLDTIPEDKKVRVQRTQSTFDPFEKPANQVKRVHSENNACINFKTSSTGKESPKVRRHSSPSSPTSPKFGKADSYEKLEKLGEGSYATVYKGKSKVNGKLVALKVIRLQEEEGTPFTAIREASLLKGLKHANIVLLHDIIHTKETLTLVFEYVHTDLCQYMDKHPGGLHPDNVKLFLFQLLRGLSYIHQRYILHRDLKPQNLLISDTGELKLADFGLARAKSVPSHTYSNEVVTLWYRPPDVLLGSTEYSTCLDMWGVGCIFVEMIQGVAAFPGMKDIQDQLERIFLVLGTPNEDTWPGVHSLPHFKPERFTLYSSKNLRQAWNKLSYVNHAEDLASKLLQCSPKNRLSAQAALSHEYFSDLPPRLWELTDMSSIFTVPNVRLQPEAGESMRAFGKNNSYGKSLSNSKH
T7 sequence (Q8ND76 whole entry partner): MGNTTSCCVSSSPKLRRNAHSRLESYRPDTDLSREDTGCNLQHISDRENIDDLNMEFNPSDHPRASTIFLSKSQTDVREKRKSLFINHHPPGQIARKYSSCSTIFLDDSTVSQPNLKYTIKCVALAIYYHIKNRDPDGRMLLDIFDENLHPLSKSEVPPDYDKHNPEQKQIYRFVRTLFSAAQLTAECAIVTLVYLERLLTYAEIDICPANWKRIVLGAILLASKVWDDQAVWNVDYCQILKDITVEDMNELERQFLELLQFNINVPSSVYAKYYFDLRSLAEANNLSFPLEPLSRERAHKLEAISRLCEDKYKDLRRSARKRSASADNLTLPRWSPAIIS

`Cc1ccc(NC(=O)c2ccc(CN3CCN(C)CC3)c(C(F)(F)F)c2)cc1-c1cnc2sc(N)nc2c1` [6r] was tested, and the inhibition at 1 µM (CDK5/p35) was 0.7%, the inhibition at 1 µM (SYK) was 3.2% and the inhibition at 1 µM (DYRK1/DYRK1A) was 17.4%. The inhibition at 1 µM (AURORA C) was 4.9%, the inhibition at 1 µM (RAF1) was 99.9% and the inhibition at 1 µM (CDK2/Cyclin A1) was 7.6%. The inhibition at 1 µM (CDK14/cyclin Y (PFTK1)) was 0%, the inhibition at 1 µM (MSK1/RPS6KA5) was 0% and the inhibition at 1 µM (ARK5/NUAK1) was 14.7%. The inhibition at 1 µM (ERBB2/HER2) was 5.4%, the inhibition at 1 µM (PAK3) was 8.3% and the inhibition at 1 µM (COT1/MAP3K8) was 9.2%. The inhibition at 1 µM (TSSK3/STK22C) was 0%, the inhibition at 1 µM (GRK7) was 7.5% and the inhibition at 1 µM (PKCd) was 10.1%. It also gave an inhibition at 1 µM (CLK2) of 38.7%, an inhibition at 1 µM (MUSK) of 10.8% and an inhibition at 1 µM (OSR1/OXSR1) of 5.5%. It also gave an inhibition at 1 µM (SGK3/SGKL) of 0.8%, an inhibition at 1 µM (PKCeta) of 3.1% and an inhibition at 1 µM (CDK1/cyclin A) of 3.8%. For the same compound, the inhibition at 1 µM (PYK2) was 48.1%, the inhibition at 1 µM (FMS) was 99% and the inhibition at 1 µM (MSK2/RPS6KA4) was 17.1%. For the same compound, the inhibition at 1 µM (EPHA7) was 40.7%, the inhibition at 1 µM (ROCK2) was 0.6% and the inhibition at 1 µM (RSK4) was 1.8%. The inhibition at 1 µM (ERK1) was 11.7%, the inhibition at 1 µM (MLCK/MYLK) was 11% and the inhibition at 1 µM (STK16) was 3.6%. The inhibition at 1 µM (PIM2) was 0.8%, the inhibition at 1 µM (MST1/STK4) was 4.3% and the inhibition at 1 µM (JAK1) was 74.9%. It also gave an inhibition at 1 µM (CDC7/DBF4) of 0.8%, an inhibition at 1 µM (ERBB4/HER4) of 73.9% and an inhibition at 1 µM (TGFBR2) of 0%. The inhibition at 1 µM (CK2a) was 21.7%, the inhibition at 1 µM (MEK5) was 6.5% and the inhibition at 1 µM (PKCg) was 0.7%. For the same compound, the inhibition at 1 µM (PKCzeta) was 0%, the inhibition at 1 µM (MST3/STK24) was 12.5% and the inhibition at 1 µM (LATS1) was 1.5%.
